Assay results from patent EP2118137B1, “PEPTIDES AND POLYPEPTIDES WITH IMPROVED STABILITY USEFUL IN THE REGENERATION OF THE NERVOUS SYSTEM” (Neuronax, priority 2006, dated 2011).
“Also recorded” adds a separate entry of the source. Square brackets hold non-standard residues; d marks the D form. Peptide text beside a SMILES is read from it. 2Nal = N[C@@H](Cc1ccc2ccccc2c1)C(=O)O; Lys(iPr) = CC(C)NCCCC[C@H](N)C(=O)O; Abu = CC[C@H](N)C(=O)O

What was measured:
[1] = system: cellules de la lignée B104; experiment: Morphological differentiation and neurite outgrowth of B104 cells; type: cell-based, rat
Description: L'activité biologique des différents peptides a été analysée par ajout de chacun des peptides dans des cultures de cellules nerveuses et suivi des modifications morphologiques de ces cellules.
Des cellules de la lignée B104, issues de neuroblastome de rat, sont cultivées à raison de 1000 cellules par puits dans des plaques de 48 puits préalablement recouverts de poly-lysine (fourni par Sigma-Aldrich), dans du milieu de Eagle modifié par Dubelco (DMEM), supplémenté de glutamine et d'antibiotique, et additionné de 10% de sérum de veau foetal pendant la phase d'adhésion. Le milieu est ensuite remplacé par un nouveau milieu DMEM ne contenant pas de sérum et permettant la différenciation des cellules. Après traitement, c'est-à-dire après ajout du composé à tester, les cellules sont maintenues en culture à 37°C sous une atmosphère à 10% de CO2. L'évolution de la morphologie cellulaire et la prolifération sont suivies par examen microscopique en contraste de phase chaque jour sur la période de culture. La différenciation cellulaire, et en particulier l'effet sur la pousse neuritique, est alors mesurée.

[2] = Stability of peptides in aqueous solution (HPLC purity on storage); type: physicochemical; details: 22°C, 50% relative humidity, HPLC after 0, 3, 7, 11 and 22 days
Method: Les peptides synthétiques ont été mis en solution aqueuse (1,5 mg de peptide dissout dans 1000 µL d'eau stérile).
Leur pureté a été testée par HPLC, elle était d'au moins 97,0%.
Ces solutions ont ensuite été diluées : à 0,4 mL de chacune de ces solutions, on a ajouté 1,1 mL d'eau purifiée.
Ces solutions ont été placées en étuve à 22°C et 50% d'humidité relative, et analysées après : 0, 3, 7, 11 et 22 jours.
L'analyse a été faite par HPLC en gradient de phase inverse à une concentration de 0,4 mg/mL, avec les paramètres suivants : - cartouche Symétrie RP18 (Waters) 125 x 4,6 mm - phases mobiles A : H2O + TFA 0.1 % (w/v) B : Acétonitrile + TFA 0.1 % (v/v) - détection : 210 nm - débit : 1 ml/min - volume d'injection : 20 µl de solution (soit 8 µg de peptide) - gradient : […]
Les échantillons ont été placés en étuve à 22 °C, 50 % d'humidité relative et analysés à : 0 jours, 3 jours, 7 jours, 11 jours et 22 jours.
Les résultats sont présentés dans le Tableau 1 et sur la Figuré 1.
Le paramètre « TR » exprime le temps de rétention du peptide en minutes dans la colonne de HPLC.
Le paramètre « Pureté » exprimé la pureté du peptide en % tel que déterminé par HPLC.
La colonne « Impuretés : TR est % » indique pour le pic supplémentaire le plus intense, le temps de rétention en minutes et le pourcentage en masse. La colonne SEQ indique le numéro de la séquence (SEQ ID N° X).

cellules nerveuses = details: added daily to the culture medium at its optimal dose; cited from earlier work
[3] = system: souris avec lésion ischémique partielle; experiment: Mouse partial ischemic spinal cord lesion, functional evaluation of walking; type: in vivo; details: partial ischemic lesion causing paralysis
Description: Une première caractérisation in vivo des phénomènes de repousse neuritique et de survie neuronale a été effectuée sur deux modèles d'animaux différents dans le cas du trauma de la moelle épinière (réparation de la moelle épinière après rupture).

cellules B104 = details: cited from earlier work

## CC[C@H](NC(=O)[C@H](CO)NC(=O)[C@H](CO)NC(=O)[C@H](Cc1c[nH]c2ccccc12)NC(=O)CNC(=O)[C@H](CO)NC(=O)[C@@H](N)Cc1c[nH]c2ccccc12)C(=O)N[C@@H](CO)C(=O)N[C@@H](CCCNC(=N)N)C(=O)N[C@@H](CO)C(N)=O [NH2-W-S-G-W-S-S-Abu-S-R-S-NH2] (H-WSGWSS[Abu]SRS-NH2)
[1]; B104 cells
  induction de la pousse neuritique: s'est montré actif

## CC[C@H](NC(=O)[C@H](CO)NC(=O)[C@H](CO)NC(=O)[C@H](Cc1c[nH]c2ccccc12)NC(=O)CNC(=O)[C@H](CO)NC(=O)[C@@H](N)Cc1c[nH]c2ccccc12)C(=O)N[C@@H](CO)C(=O)N[C@@H](CCCNC(=N)N)C(=O)N[C@@H](CO)C(=O)O [SEQ ID N°4, W-S-G-W-S-S-Abu-S-R-S] (H-WSGWSS[Abu]SRS-OH)
[2]
  stabilité en solution aqueuse: stabilité en solution améliorée

## CC[C@H](NC(=O)[C@H](CCCNC(=N)N)NC(=O)[C@H](CO)NC(=O)[C@H](CS)NC(=O)[C@H](CO)NC(=O)[C@H](CO)NC(=O)[C@H](Cc1c[nH]c2ccccc12)NC(=O)CNC(=O)[C@H](CO)NC(=O)[C@@H](N)Cc1c[nH]c2ccccc12)C(=O)O [SEQ ID N°5, W-S-G-W-S-S-C-S-R-Abu] (H-WSGWSSCSR[Abu]-OH)
[2]
  stabilité en solution aqueuse: stabilité en solution améliorée

## CC(C)NCCCC[C@H](NC(=O)[C@H](CO)NC(=O)[C@H](CS)NC(=O)[C@H](CO)NC(=O)[C@H](CO)NC(=O)[C@H](Cc1c[nH]c2ccccc12)NC(=O)CNC(=O)[C@H](CO)NC(=O)[C@@H](N)Cc1c[nH]c2ccccc12)C(=O)N[C@@H](CO)C(=O)O [SEQ ID N°6, W-S-G-W-S-S-C-S-K-(iPr)-S] (H-WSGWSSCS[Lys(iPr)]S-OH)
[2]
  stabilité en solution aqueuse: stabilité en solution améliorée

## CC[C@H](NC(=O)[C@@H](N)Cc1c[nH]c2ccccc12)C(=O)NCC(=O)N[C@@H](Cc1c[nH]c2ccccc12)C(=O)N[C@@H](CO)C(=O)N[C@@H](CO)C(=O)N[C@@H](CS)C(=O)N[C@@H](CO)C(=O)N[C@@H](CCCNC(=N)N)C(=O)N[C@@H](CO)C(=O)O [SEQ ID N°7, W-Abu-G-W-S-S-C-S-R-S] (H-W[Abu]GWSSCSRS-OH)
[2]
  stabilité en solution aqueuse: stabilité en solution améliorée

## N=C(N)NCCC[C@H](NC(=O)[C@H](CO)NC(=O)[C@H](CS)NC(=O)[C@H](CO)NC(=O)[C@H](CO)NC(=O)[C@H](Cc1c[nH]c2ccccc12)NC(=O)CNC(=O)[C@H](CO)NC(=O)[C@@H](N)Cc1ccc2ccccc2c1)C(=O)N[C@@H](CO)C(=O)O [SEQ ID N°8, L-Nal2-S-G-W-S-S-C-S-R-S] (H-[2Nal]SGWSSCSRS-OH)
[2]
  stabilité en solution aqueuse: stabilité en solution améliorée

## W-S-G-W-S-S-C-S-R-S-C-G (WSGWSSCSRSCG) [SEQ ID N°1, séquence la plus représentative d'un motif TSR de la SCO-spondine]
[2]
  stabilité en solution aqueuse: se dégrade plus vite; also recorded: diminue en solution aqueuse avec le temps
[1]
  réponse des cellules B 104 (effet dose-réponse): proportionnelle à la concentration de peptide
[1]; 24 hours after adding the peptides
  étalement du corps cellulaire: cet effet est présent
[1]; B104 cells
  incidence du remplacement de l'extrémité carboxyterminale par une extrémité aminée sur l'effet du peptide: aucune incidence
[1]; after 3 days of culture
  nombre de neurites par cellule: effet inducteur de la pousse neuritique
  pousses neuritiques: pousses neuritiques importantes
Cellules nerveuses
  effet du peptide avec ajout quotidien: l'effet observé était accentué
[3]
  activité régénératrice (évaluation fonctionnelle au niveau de la marche): activité régénératrice
Cellules B104; after three days of culture, without serum
  pousses neuritiques: pousses neuritiques importantes
Cellules B104
  différenciation cellulaire: induit la pousse neuritique et l'agrégation cellulaire
  nombre de neurites: induit une augmentation
  taille du neurite le plus long: induit une augmentation
Cellules B104; from 3 or 4 days of culture
  regroupements cellulaires (agrégation): apparition de regroupements de ces cellules B 104 différenciées
Cellules B104; increasing range of peptide concentrations
  effet sur la pousse neuritique (dose): dépendant de la dose de peptide utilisée
